Laboratory results taken from US5491135A (priority 1993, dated 1996).
Several values for one entry are separate records, joined by “and”; a condition that tells them apart may be missing. Equal entries are not always repeated. Where two headings read alike, the source gives them in different places.

Columns and labels:
simian varicella virus = assay: Simian varicella virus infection in African green monkeys; type: in vivo, African green monkey; details: for Viremia, Mean PFU: mg/kg/d i.v.
Procedure: Fifteen African green monkeys were weighed and bled for clinical chemistry hematology baselines. […] Each of the 15 monkeys were infected with simian varicella virus by intratracheal inoculation of 3.7×10^4 plaque forming units (PFU) of simian varicella virus. […] Control monkeys, service as infection controls, received twice daily intravenous injections of phosphate buffered saline administered at 1.0 ml/kg of body weight. A second group of three monkeys received PALA at 50 mg/kg/day given by intravenous bolus injection into the saphenous vein. A third group was given a lower dose of PALA at 20 mg/kg/day administered in a similar manner. Acyclovir treatment was administered at a subeffective dose of 10 mg/kg/day also given as intravenous bolus injection into the saphenous vein. A fifth group of three monkeys received a combined treatment of PALA at 20 mg/kg/day and acyclovir at 10 mg/kg/day. The drugs were injected into opposite veins at each time of treatment.
Drug solutions were prepared daily prior to treatment. Treatment was begun 24 hours after virus inoculation. PALA was provided as a solution in vials containing 5 ml at 100 mg/ml. The contents of three vials were pooled and seven ml of the pooled drug diluted to 28 ml to give 25 mg/ml. Five ml of this solution was diluted to […] to give 10 mg/ml. Drug was administered twice daily resulting in total daily doses of 50 or 20 mg/kg/day.
Acyclovir received as a gift from Burroughs Wellcome was weighed out as a 200 mg quantity. This was diluted with 5 ml of PBS and pH adjusted to 11.0 with 1N NaOH to effect solution. This was subsequently diluted to 40 ml to give a solution of 5 mg/ml and sterilized by filtration. Again, 1 ml per kg of body weight was administered by intravenous injection twice daily resulting in a dose of 10 mg/kg/day.
The clinical course of simian varicella infection was followed by collection of 2 ml of blood in heparin on day 2, 5, 7, 9 and 11 post-inoculation. The lymphocytes in the 2 ml specimen were separated on ficol-hypaque gradients, washed twice in RPMI-1640 medium and suspended in 10 ml of this medium. The 10 ml volume was divided between two 25 cm^2 tissue culture flasks seeded 24 hours earlier with Vero cells. After 5-7 days incubation, the culture fluids were discarded from the flasks and the cell monolayer fixed with methanol and stained with methylene blue-basic fuchsin. When dried the number of plaques in each flask were counted and the mean number of plaques between the two paired flasks were determined and expressed as a quantitation of viremia per ml of blood.
Rash was evaluated daily using a subjective scoring of severity from ± to 4+. A ± score indicates less than 10 vesicles seen on the skin of the monkey while 4+ indicates numerous vesicles covering the majority of the body surface. General clinical condition was assessed daily and anorexia noted by counting the number of food biscuits consumed daily. Monkeys dying during the course of the experiment were necropsied and simian varicella was determined as the cause of death based on the typical pathology. Baseline hematology and clinical chemistry tests were performed at three days before virus inoculation and again on day 0, immediately before virus inoculation. Following inoculation of simian varicella virus blood was taken for hematology and clinical chemistry tests at 3, 7, 9 and 11 days.
At 14 and 21 days after virus inoculation, blood was taken and the serum separated for quantitation of antibody. Antibody titers were obtained in a serum neutralization test employing a plaque reduction assay. The antibody titer expressed is the dilution of serum resulting in an 80 percent reduction in the number of plaques from that number occurring in control cultures without added serum.

[1] = tested on: respiratory syncytial virus (RSV); assay: RSV infection in cotton rats, lung titre; type: in vivo, cotton rat
Excerpt: 1. 50 to 100 g cotton rats of either sex inoculated i.n. with RS A2 (pool 8-28-92) on day 0.
2. On day +1 animals were given placebo or PALA as follows:
3. All animals killed on day +4 and their lungs tested for RSV levels.

flaviviruses = assay: Antiviral test of 2-dGlc; type: cell-based; details: alone
herpesvirus = details: cited from earlier work
[2] = PALA 50, rifampicin 10 or both, mg/kg/day i.v.
[3] = day 10, PALA 50, rifampicin 10 mg/kg/d or both

For `Nc1nc2c(ncn2COCCO)c(=O)[nH]1` [Acyclovir, reference compound], the “effect on rash / viremia” value (simian varicella virus; PALA 20, Acyclovir 10 or both, mg/kg/day i.v.) was “no effect in moderating viremia”, the “thrombocytopenia on day 11” value (simian varicella virus; PALA 50 or Acyclovir 10 mg/kg/day) was “two monkeys” and the “Viremia, Mean PFU” value (simian varicella virus; day 7, PALA 20, Acyclovir 10 or both) was > 1000 PFU and 504 PFU. The “Viremia, Mean PFU” value (simian varicella virus; day 11, PALA 20, Acyclovir 10 or both) was 0 PFU.

In the case of `NC(=O)c1ncn([C@@H]2O[C@H](CO)[C@@H](O)[C@H]2O)n1` [RIBAVIRIN, reference compound], the RSV lung titre ([1]; ribavirin 40 mg/kg, alone or + PALA 3 mg/kg, individual animal) is reported as 3.4 LOG10 and 2.9 LOG10 and 3.5 LOG10 and the “RSV lung titre, mean (SD)” value ([1]; ribavirin 40 mg/kg/day, alone or + PALA 3) is reported as 3.3 (0.3) LOG10 /G Lung.

For `CO[C@H]1/C=C/O[C@@]2(C)Oc3c(C)c(O)c4c(O)c(c(/C=N/N5CCN(C)CC5)c(O)c4c3C2=O)NC(=O)/C(C)=C\C=C\[C@H](C)[C@H](O)[C@@H](C)[C@@H](O)[C@@H](C)[C@H](OC(C)=O)[C@@H]1C` [Rifampicin, reference compound], the “lesion development” value (vaccinia virus; [2]) was “appreciable skin lesions”, the “virus titers in skin” value (vaccinia virus; [2]) was “Higher titers” and the Weight (vaccinia virus; day 0, PALA 50, rifampicin 10 mg/kg/d or both) was 5.2 kg and 2.6 kg and 4.2 kg. The “Vaccinia Lesion Score, group mean” value (vaccinia virus; day 3, PALA 50, rifampicin 10 mg/kg/d or both) was 0.4, the “Vaccinia Lesion Score, group mean” value (vaccinia virus; day 6, PALA 50, rifampicin 10 mg/kg/d or both) was 1.2 and the “Vaccinia Lesion Score” value (vaccinia virus; day 6, PALA 50, rifampicin 10 mg/kg/d or both, per monkey) was 1.6 and 0.7 and 1.4. For the same molecule, the “Vaccinia Lesion Score, group mean” value (vaccinia virus; day 7, PALA 50, rifampicin 10 mg/kg/d or both) was 1.7, the “Vaccinia Lesion Score, group mean” value (vaccinia virus; day 8, PALA 50, rifampicin 10 mg/kg/d or both) was 1.3 and the “Vaccinia Lesion Score, group mean” value (vaccinia virus; day 9, PALA 50, rifampicin 10 mg/kg/d or both) was 1.2. For the same molecule, the “Vaccinia Lesion Score, group mean” value (vaccinia virus; [3]) was 1.6, the Weight (vaccinia virus; [3]) was 4.6 kg and 2.4 kg and 3.8 kg and the “Vaccinia Lesion Score, group mean” value (vaccinia virus; day 13, PALA 50, rifampicin 10 mg/kg/d or both) was 0.9. The Weight (vaccinia virus; day 14, PALA 50, rifampicin 10 mg/kg/d or both) was 4.6 kg and 2.4 kg and 3.8 kg, the Weight (vaccinia virus; day 21, PALA 50, rifampicin 10 mg/kg/d or both) was 4.8 kg and 2.6 kg and 4.0 kg and the signs of toxicity (vaccinia virus; except one monkey at PALA 125 mg/kg bolus) was “No appreciable signs of toxicity”. The “Titer of vaccinia virus in skin biopsy” value (vaccinia virus; head prints day 6, PALA 50, rifampicin 10 mg/kg/d or both) was 1.5 × 10^7 PFU/ml and 1.2 × 10^5 PFU/ml and 1.1 × 10^5 PFU/ml.

For `O=CC[C@@H](O)[C@H](O)[C@H](O)CO` [2-dGlc, 2-deoxy-D-glucose], the effect against flaviviruses (flaviviruses) was “no effect”.

In the case of `O=C(O)CP(=O)(O)O` [PAA, phosphonoacetic acid, reference compound], the “antiherpesvirus activity” value (herpesvirus) is listed as “selective antiherpesvirus agent”.
